From PMC8840040, “Pharmacokinetic Characterization of the DDAH1 Inhibitors ZST316 and ZST152 in Mice Using a HPLC-MS/MS Method” (Molecules, 2022)

Experiment: Urinary metabolites in 24 h urine by HPLC-MS/MS
Format: in vivo, FVB mice
Method: The assessment of the urinary elimination after oral and intravenous administration, in the urine fraction collected 24 h post dose, is reported in Table 6. […] To further investigate this issue, we searched for the presence of urinary metabolites in the 24 h urine samples in one mouse per treatment group. We identified at least eight molecules most likely originating from the parent compounds (Table 7; see Supplementary Figure S1 for the hypothesized structures).
Mice were treated with ZST316 and ZST152 using a dose of 60 mg/Kg (oral gavage) and 30 mg/Kg (intravenous bolus). For pharmacokinetic sampling, blood was collected at 15 and 30 min, and 1, 3, 8, and 24 h post dose. Three mice were analyzed per each time point. After the animals were anesthetized with isoflurane, the blood was drained from the retro-orbital plexus into heparinized tubes, and then centrifuged for 10 min at 4000× g at 4 °C to separate plasma. A 24-h urine fraction was collected in three mice for each drug and route of administration. Plasma and urine samples were stored at −20 °C until analysis by HPLC-MS/MS.
[…] chromatography was performed using a series 200 HPLC system (Perkin Elmer, Waltham, MA, USA) under gradient conditions with separation on a HILIC column, 3 µm, 100 A, 2.1 × 150 mm (Waters, Milford, MA, USA), coupled with a 3 µm, 3.9 × 5.0 mm guard column of the same material at the flow rate of 0.2 mL/min. Gradient features: 10% mobile phase (MP) A (NH4HCO2 10 mM, 10% CH3CN, 0.1% HCOOH) and 90% MP B (CH3CN, 0.1% HCOOH) as the initial constant condition; then to 90% MP A in 6 min and the constant condition for 1.5 min. Return to the start condition in 0.5 min and conditioning for 5.5 min. Total run time: 13.5 min. Mass spectrometric detection was performed using an API 4000 triple quadrupole mass spectrometer (SCIEX, Framingham, MA, USA) supplied with a Turbo Ion Spray source set at 350 °C and −4200 V, analyzing biological samples with electrospray ionization (ESI) operating in negative ion mode. Purified air was used as nebulizer gas (Gas 1) and heater gas (Gas 2) and N2 was used as curtain gas and collision activated dissociation gas. They were set to 40, 50, 20, and 4 instrument units (psi), respectively. The declustering potential (DP) was set at −119 V and the collision exit potential (CXP) at –10 V. All parameters of the source were defined by direct infusion of ZST316 and ZST152 1 µg/mL in mobile phase B. The final quantification was carried out in Selected Reaction Monitoring (SRM) with the following transitions: m/z 307.9 → 208.0 (collision energy of −29.5 eV) for ZST316 and m/z 271.9 → 170.9 (collision energy −24.7 eV) for ZST152 (Figure 2 and Figure 3). Data were processed with the software package Analyst 1.6.2 (AB SCIEX).

[1] = after intravenous ZST152, total dose 1.410 mg, mouse #1, 24 h urine
[2] = after intravenous ZST316, total dose 1.326 mg, mouse #1, 24 h urine
[3] = after oral ZST152, total dose 1.158 mg, mouse #3, 24 h urine
[4] = after oral ZST316, total dose 1.308 mg, mouse #3, 24 h urine

Compound | % of Dose recovered in urine [1] [%] | Amount Recovered in urine [1] [µg] | % of Dose recovered in urine [2] [%] | Amount Recovered in urine [2] [µg] | % of Dose recovered in urine [3] [%] | Amount Recovered in urine [3] [µg] | % of Dose recovered in urine [4] [%] | Amount Recovered in urine [4] [µg]
COCCNC(=N)N [M1] | 0.039 | 0.55 | 0.017 | 0.23 | 0.088 | 1.02 | 0.21 | 2.74
COCCNC(=N)NCCCC=O [M2] | 9.05 | 128 |  |  | 0.023 | 0.27 |  | 
COCCNC(=N)NCCC[C@H](O)C(=O)O [M8] |  |  | 0.37 | 4.87 |  |  | 4.1 | 53.4
COCCNC(=N)NCCC[C@H](O)C(=O)NC(C)=O [M9] |  |  | 0.32 | 4.28 |  |  | 5.4 | 71.0

Next, values leading:

% of Dose recovered in urine [1] [%] | Amount Recovered in urine [1] [µg] | % of Dose recovered in urine [2] [%] | Amount Recovered in urine [2] [µg] | % of Dose recovered in urine [3] [%] | Amount Recovered in urine [3] [µg] | % of Dose recovered in urine [4] [%] | Amount Recovered in urine [4] [µg] | Compound
0.19 | 2.62 |  |  | 4.2 | 49.1 |  |  | COCCNC(=N)NCCCCO [M3]
6.6 | 93.3 | 0.66 | 8.71 | 7.6 | 87.8 | 8.2 | 108 | COCCNC(=N)NCCCC(=O)O [M4]
0.10 | 1.48 |  |  | 0.014 | 0.16 |  |  | COCCNC(=N)NCCC[C@H](N)C=NO [M6]
0.13 | 1.77 | 6.5 | 86.1 | 0.22 | 2.58 | 76 | 991 | COCCNC(=N)NCCC[C@H](N)C(=O)O [M7]
